# Assay results from ChEMBL document CHEMBL3745645, “Synthesis, in vitro antitumor activity, dihydrofolate reductase inhibition, DNA intercalation and structure-activity relationship studies of 1,3,5-triazine analogues” (Bioorg Med Chem Lett, 2016).
# Active and inactive are the calls of the source. The rule behind the calls is not given here.
# Experiments:
# Assay type in all cases: functional
# NCI-H322M = test: Cytotoxicity against human NCI-H322M cells at 10 uM after 48 hrs by SRB assay; conditions: read-out: GI
# [1] = Cytotoxicity against human OVCAR8 cells at 10 uM after 48 hrs by SRB assay; conditions: OVCAR-8, 48 h, read-out: GI
# 786-0 = test: Cytotoxicity against human 786-0 cells at 10 uM after 48 hrs by SRB assay; conditions: 786-0, 48 h, read-out: GI
# [2] = Cytotoxicity against human HOP62 cells at 10 uM after 48 hrs by SRB assay; conditions: HOP-62, 48 h, read-out: GI
# [3] = Cytotoxicity against human OVCAR3 cells at 10 uM after 48 hrs by SRB assay; conditions: OVCAR-3, 48 h, read-out: GI
# [4] = Cytotoxicity against human UO31 cells at 10 uM after 48 hrs by SRB assay; conditions: UO-31, 48 h, read-out: GI
# [5] = Cytotoxicity against human Caki1 cells at 10 uM after 48 hrs by SRB assay; conditions: CAKI-1, 48 h, read-out: GI
# M14 = test: Cytotoxicity against human M14 cells at 10 uM after 48 hrs by SRB assay; conditions: M14, 48 h, read-out: GI
# [6] = Cytotoxicity against human UACC257 cells at 10 uM after 48 hrs by SRB assay; conditions: UACC-257, 48 h, read-out: GI
# MDA-MB-435 = test: Cytotoxicity against human MDA-MB-435 cells at 10 uM after 48 hrs by SRB assay; conditions: MDA-MB-435, 48 h, read-out: GI
# HT-29 = test: Cytotoxicity against human HT-29 cells at 10 uM after 48 hrs by SRB assay; conditions: HT-29, 48 h, read-out: GI
# [7] = Cytotoxicity against human SF295 cells at 10 uM after 48 hrs by SRB assay; conditions: SF-295, 48 h, read-out: GI
# OVCAR-5 = test: Cytotoxicity against human OVCAR5 cells at 10 uM after 48 hrs by SRB assay
# T47D = test: Cytotoxicity against human T47D cells at 10 uM after 48 hrs by SRB assay; conditions: read-out: GI
# [8] = Cytotoxicity against human SKOV3 cells at 10 uM after 48 hrs by SRB assay; conditions: SK-OV-3, 48 h, read-out: GI
# K562 = test: Cytotoxicity against human K562 cells at 10 uM after 48 hrs by SRB assay
# KM12 = test: Cytotoxicity against human KM12 cells at 10 uM after 48 hrs by SRB assay; conditions: KM12, 48 h, read-out: GI
# [9] = Cytotoxicity against human SF539 cells at 10 uM after 48 hrs by SRB assay; conditions: SF-539, 48 h, read-out: GI
# [10] = Cytotoxicity against human SF268 cells at 10 uM after 48 hrs by SRB assay; conditions: SF-268, 48 h, read-out: GI
# SK-MEL-28 = test: Cytotoxicity against human SK-MEL-28 cells at 10 uM after 48 hrs by SRB assay
# NCI-H460 = test: Cytotoxicity against human NCI-H460 cells at 10 uM after 48 hrs by SRB assay; conditions: NCI-H460, 48 h, read-out: GI
# [11] = Cytotoxicity against human RXF393 cells at 10 uM after 48 hrs by SRB assay; conditions: RXF 393, 48 h, read-out: GI
# SK-MEL-2 = test: Cytotoxicity against human SK-MEL-2 cells at 10 uM after 48 hrs by SRB assay; conditions: SK-MEL-2, 48 h, read-out: GI
# NCI-H522 = test: Cytotoxicity against human NCI-H522 cells at 10 uM after 48 hrs by SRB assay; conditions: NCI-H522, 48 h, read-out: GI
# [12] = Cytotoxicity against human OVCAR4 cells at 10 uM after 48 hrs by SRB assay; conditions: OVCAR-4, 48 h, read-out: GI
# CCRF-CEM = test: Cytotoxicity against human CCRF-CEM cells at 10 uM after 48 hrs by SRB assay
# U-251 = test: Cytotoxicity against human U251 cells at 10 uM after 48 hrs by SRB assay; conditions: U-251, 48 h, read-out: GI
# MDA-MB-468 = test: Cytotoxicity against human MDA-MB-468 cells at 10 uM after 48 hrs by SRB assay; conditions: MDA-MB-468, 48 h, read-out: GI
# MDA-MB-231 = test: Cytotoxicity against human MDA-MB-231 cells at 10 uM after 48 hrs by SRB assay; conditions: MDA-MB-231, 48 h, read-out: GI
# SK-MEL-5 = test: Cytotoxicity against human SK-MEL-5 cells at 10 uM after 48 hrs by SRB assay; conditions: SK-MEL-5, 48 h, read-out: GI
# ACHN = test: Cytotoxicity against human ACHN cells at 10 uM after 48 hrs by SRB assay; conditions: read-out: GI
# RPMI-8226 = test: Cytotoxicity against human RPMI8226 cells at 10 uM after 48 hrs by SRB assay
# SN12C = test: Cytotoxicity against human SN12C cells at 10 uM after 48 hrs by SRB assay; conditions: read-out: GI
# Hs-578T = test: Cytotoxicity against human Hs 578T cells at 10 uM after 48 hrs by SRB assay
# [13] = Cytotoxicity against human COLO205 cells at 10 uM after 48 hrs by SRB assay; conditions: COLO 205, 48 h, read-out: GI
# [14] = Cytotoxicity against human SNB19 cells at 10 uM after 48 hrs by SRB assay; conditions: SNB-19, 48 h, read-out: GI
# [15] = Cytotoxicity against human HCT116 cells at 10 uM after 48 hrs by SRB assay; conditions: HCT-116, 48 h, read-out: GI
# TK-10 = test: Cytotoxicity against human TK10 cells at 10 uM after 48 hrs by SRB assay
# [16] = Cytotoxicity against human HCC2998 cells at 10 uM after 48 hrs by SRB assay; conditions: HCC 2998, 48 h, read-out: GI
# [17] = Cytotoxicity against human LOXIMVI cells at 10 uM after 48 hrs by SRB assay; conditions: LOX IMVI, read-out: GI
# SR = test: Cytotoxicity against human SR cells at 10 uM after 48 hrs by SRB assay
# [18] = Cytotoxicity against human HOP92 cells at 10 uM after 48 hrs by SRB assay; conditions: HOP-92, 48 h, read-out: GI
# HCT-15 = test: Cytotoxicity against human HCT15 cells at 10 uM after 48 hrs by SRB assay
# NCI-H226 = test: Cytotoxicity against human NCI-H226 cells at 10 uM after 48 hrs by SRB assay; conditions: NCI-H226, 48 h, read-out: GI
# [19] = Cytotoxicity against human DU145 cells at 10 uM after 48 hrs by SRB assay; conditions: DU-145, 48 h, read-out: GI
# MCF7 = test: Cytotoxicity against human MCF7 cells at 10 uM after 48 hrs by SRB assay; conditions: MCF7, 48 h, read-out: GI
# NCI/ADR-RES = test: Cytotoxicity against human NCI-ADR-RES cells at 10 uM after 48 hrs by SRB assay
# A549 = test: Cytotoxicity against human A549 cells at 10 uM after 48 hrs by SRB assay; conditions: A549, 48 h, read-out: GI
# Malme-3M = test: Cytotoxicity against human MALME-3M cells at 10 uM after 48 hrs by SRB assay; conditions: read-out: GI
# [20] = Cytotoxicity against human IGROV1 cells at 10 uM after 48 hrs by SRB assay; conditions: IGROV-1, 48 h, read-out: GI
# [21] = Cytotoxicity against human SNB75 cells at 10 uM after 48 hrs by SRB assay; conditions: SNB-75, 48 h, read-out: GI
# [22] = Cytotoxicity against human SW620 cells at 10 uM after 48 hrs by SRB assay; conditions: SW-620, 48 h, read-out: GI
# [23] = Cytotoxicity against human BT549 cells at 10 uM after 48 hrs by SRB assay; conditions: BT-549, 48 h, read-out: GI
# A498 = test: Cytotoxicity against human A498 cells at 10 uM after 48 hrs by SRB assay; conditions: A498, 48 h, read-out: GI
# HL-60(TB) = test: Cytotoxicity against human HL-60(TB) cells at 10 uM after 48 hrs by SRB assay
# MOLT-4 = test: Cytotoxicity against human MOLT4 cells at 10 uM after 48 hrs by SRB assay
smiles,measurement,setting,value
Cc1nc2cc(Nc3nc(NCCN)nc(Nc4ccc(F)cc4)n3)ccc2n1Cc1ccccc1,inhibition of growth at 10 µM,NCI-H322M,0.32%
same,inhibition of growth at 10 µM,[1],10.9%
same,inhibition of growth at 10 µM,786-0,17.6%
same,inhibition of growth at 10 µM,[2],20.9%
same,inhibition of growth at 10 µM,[3],13.3%
same,inhibition of growth at 10 µM,[4],10.7%
same,inhibition of growth at 10 µM,[5],5.83%
same,inhibition of growth at 10 µM,M14,18.4%
same,inhibition of growth at 10 µM,[6],9.53%
same,inhibition of growth at 10 µM,MDA-MB-435,19.6%
same,inhibition of growth at 10 µM,HT-29,64.9%
same,inhibition of growth at 10 µM,[7],20.2%
same,growth inhibition (GI),OVCAR-5,inactive
same,inhibition of growth at 10 µM,T47D,30.9%
same,inhibition of growth at 10 µM,[8],4.49%
same,growth inhibition (GI),K562,Active
same,inhibition of growth at 10 µM,KM12,29.4%
same,inhibition of growth at 10 µM,[9],3.98%
same,inhibition of growth at 10 µM,[10],28.2%
same,growth inhibition (GI),SK-MEL-28,inactive
same,inhibition of growth at 10 µM,NCI-H460,17.4%
same,inhibition of growth at 10 µM,[11],28%
same,inhibition of growth at 10 µM,SK-MEL-2,9.54%
same,inhibition of growth at 10 µM,NCI-H522,14.1%
same,inhibition of growth at 10 µM,[12],23%
same,growth inhibition (GI),CCRF-CEM,Active
same,inhibition of growth at 10 µM,U-251,22.6%
same,inhibition of growth at 10 µM,MDA-MB-468,26.8%
same,inhibition of growth at 10 µM,MDA-MB-231,39.6%
same,inhibition of growth at 10 µM,SK-MEL-5,13.4%
same,inhibition of growth at 10 µM,ACHN,3.22%
same,growth inhibition (GI),RPMI-8226,Active
same,inhibition of growth at 10 µM,SN12C,14.9%
same,growth inhibition (GI),Hs-578T,inactive
same,inhibition of growth at 10 µM,[13],18%
same,inhibition of growth at 10 µM,[14],8.37%
same,inhibition of growth at 10 µM,[15],39.7%
same,growth inhibition (GI),TK-10,inactive
same,inhibition of growth at 10 µM,[16],29.4%
same,inhibition of growth at 10 µM,[17],41.8%
same,growth inhibition (GI),SR,Active
same,inhibition of growth at 10 µM,[18],51.5%
same,growth inhibition (GI),HCT-15,inactive
same,inhibition of growth at 10 µM,NCI-H226,4.61%
same,inhibition of growth at 10 µM,[19],17.8%
same,inhibition of growth at 10 µM,MCF7,31.2%
same,growth inhibition (GI),NCI/ADR-RES,inactive
same,inhibition of growth at 10 µM,A549,16.1%
same,inhibition of growth at 10 µM,Malme-3M,6.46%
same,inhibition of growth at 10 µM,[20],18.6%
same,inhibition of growth at 10 µM,[21],15.8%
same,inhibition of growth at 10 µM,[22],26.1%
same,inhibition of growth at 10 µM,[23],9.96%
same,inhibition of growth at 10 µM,A498,32.6%
same,growth inhibition (GI),HL-60(TB),Active
same,growth inhibition (GI),MOLT-4,Active
